Earlier results in patent publication US7625587B2, “Hepato phyto-nutraceutical synergistic composition” (priority 2006, dated 2009).

What was measured:
[1] = system: hepatic mitochondria; settings: free oxygen radical induced damage
[2] = system: hepatic toxicity induced by paracetamol, prednisolone and bromobenzene; settings: mice; pre-treatment during ten days
[3] = system: mice hepatocytes
[4] = system: carbon tetrachloride hepatotoxicity; settings: mouse, in vivo
[5] = system: bacterial resistance mechanism (multidrug pump); settings: in the presence of 5′-MHC
[6] = system: mice hepatocytes; remark: listed apart in the source
[7] = system: 11_beta-hydroxysteroid dehydrogenase; settings: in vitro
[8] = system: beta-reductase; settings: in vitro

Compound: COc1cc(/C=C/C(=O)O)ccc1O [Ferulic acid, ferulic acid]
- protection of hepatic mitochondria [1]: protected the hepatic mitochondria

Compound: COc1cc(/C=C/C(=O)[O-])ccc1O.[Na+] [sodium ferulate]
- drug induced hepatic toxicity [2]: improved the hepatic toxicity

Compound: CC1(C)[C@@H](O[C@H]2O[C@H](C(=O)O)[C@@H](O)[C@H](O)[C@H]2O[C@@H]2O[C@H](C(=O)O)[C@@H](O)[C@H](O)[C@H]2O)CC[C@]2(C)[C@H]3C(=O)C=C4[C@@H]5C[C@@](C)(C(=O)O)CC[C@]5(C)CC[C@@]4(C)[C@]3(C)CC[C@@H]12 [Glycyrrhizin]
- liberation of histamine [3]: inhibited the liberation of histamine
- hepatic injuries induced by carbon tetrachloride [4]: prevented hepatic injuries

Compound: COc1cc([C@H]2Oc3cc(-c4cc(=O)c5c(O)cc(O)cc5o4)cc(OC)c3O[C@@H]2CO)ccc1O (racemic) [5′-methoxyhydnocarpin]
- accumulation of berberine in the cells [5]: strong increase of accumulation of berberine

Compound: CC1(C)[C@@H](O[C@H]2O[C@H](C(=O)O)[C@@H](O)[C@H](O)[C@H]2O[C@@H]2O[C@H](C(=O)O)[C@@H](O)[C@H](O)[C@H]2O)CC[C@]2(C)[C@H]3C(=O)C=C4[C@@H]5C[C@@](C)(C(=O)O)CC[C@]5(C)CC[C@@]4(C)[C@]3(C)CC[C@@H]12 [glicirricinic acid]
- toxic action of carbon tetrachloride and of galactosamine [6]: reduces the toxic action

Compound: CC1(C)[C@@H](O)CC[C@]2(C)[C@H]3C(=O)C=C4[C@@H]5C[C@@](C)(C(=O)O)CC[C@]5(C)CC[C@@]4(C)[C@]3(C)CC[C@@H]12 [glycyrrhetic acid]
- inhibition of 11_beta-hydroxysteroid dehydrogenase [7]: inhibits
- inhibition of beta-reductase [8]: inhibits
